Experiments:
[1] = test system: transplanted mice (hair follicles of haired mice transplanted into the back of nude mice); experiment: Hair shaft growth in nude mice transplanted with hair follicles of haired mice (Example 1); assay type: in vivo; settings: for Hair shaft growth rate: topical 4 times per day
Method: Hair follicles (surgically prepared) of haired mice were transplanted into the back of nude mice (from Sankyo Labo Service Corporation, Inc.) to produce transplanted mice manipulated such that each hair can be distinguished and a plurality of hair cycles can be observed. First, a 50% ethanol aqueous solution (12.5 μl, not containing the agent) was applied to the transplanted mice 4 times per day during new hair growth in the first hair cycle to obtain reference data of a hair cycle. After the hair had shed following the end of the first hair cycle, a 50% ethanol aqueous solution (12.5 μl) containing a predetermined amount of the agent was applied to the mice 4 times per day to obtain data on effects of the agent. After the hair had shed following the end of the second hair cycle, a 50% ethanol aqueous solution (12.5 μl) containing the agent in the same amount as that in the second hair cycle was applied to the mice in a similar manner to the second hair cycle to obtain reproducibility data on effects of the agent. As the agent, D-chiro-inositol (from Wako Pure Chemical Industries Ltd.) and its stereoisomers as chiro-inositol, L-chiro-inositol (from Tokyo Chemical Industry Co., Ltd.), myo-inositol (from Wako Pure Chemical Industries Ltd.), allo-inositol (cis-1,2,3,4-trans-5,6-cyclohexaneheaxol) (from Tokyo Chemical Industry Co., Ltd.), epi-inositol (cis-1,2,3,4,5-trans-6-cyclohexanehexaol) (from Tokyo Chemical Industry Co., Ltd.), muco-inositol (cis-1,2,4,5-trans-3,6-cyclohexanehexaol) (from Tokyo Chemical Industry Co., Ltd.), and scyllo-inositol (cis-1,3,5-trans-2,4,6-cyclohexanehexaol) (from Tokyo Chemical Industry Co., Ltd.) were used. For each agent solution, the lengths of hair shafts were measured every 2 to 3 days, an average length of hair shafts that changed day by day was plotted as one dot at each time point in a graph, and a similar plotting was repeated for 3 to 4 mice. The results were shown in Tables 1 to 14 and FIGS. 1 to 14.

C57BL/6N mice = experiment: Hair shaft diameter of regrown body hair after hair pull-out (Example 2); assay type: in vivo; settings: 1 wt % in 50% ethanol, once/day 100 μl, day 21 after the application; FIG. 15, P<0.01
Description: In C57BL6/N mice, it is known that when body hair of the back is pulled out, hair cycles in the pulled-out region are forced to shift to the […], and as a result, the hair cycles in the pulled-out region are synchronized. Therefore, only hair in the anagen phase becomes observable by decreasing variations in hair cycles. Approximately 7 days after hair is pulled out, as a sign of the anagen phase, skin color changing into gray is observed as melanocytes in hair follicles start synthesizing melanin, in addition to growth of pigmented hair. Further, approximately 10 days after hair is pulled out, new hair growth is observed in the pulled-out region. […] Accordingly, hair growth activity can be evaluated from a viewpoint of an increase in hair shaft diameter by measuring the hair shaft diameter of body hair grown in the pulled-out region approximately 21 days after hair is pulled out. […]
The application was performed for two groups (test solution-applied group and negative control group (50% ethanol-applied group)), where each group consisted of six mice. […] About 20 hair shafts were collected from each mouse, and the hair shaft diameter was measured for 10 hair shafts randomly selected from 120 hair shafts in total collected from 6 mice of each group. […]

[2] = 1 wt %, second hair cycle vs first hair cycle (vehicle)
[3] = 1 wt %, third hair cycle vs first hair cycle (vehicle)
[4] = 5 wt %, second hair cycle vs first hair cycle (vehicle)
[5] = 5 wt %, third hair cycle vs first hair cycle (vehicle)
[6] = 10 wt %, second hair cycle vs first hair cycle (vehicle)
[7] = 10 wt %, third hair cycle vs first hair cycle (vehicle)

OC1C(O)C(O)C(O)C(O)C1O [D-chiro-inositol]
Hair shaft growth rate and hair shaft maximum length, difference from the reference data ([1]; 0.01 wt %): marginally significant differences
Hair shaft growth rate ([1]; 0.01 wt % in 50% ethanol, second hair cycle): 0.30 ± 0.03 mm/day
Hair shaft growth rate ([1]; 0.01 wt % in 50% ethanol, third hair cycle (reproducibility)): 0.40 ± 0.06 mm/day
Hair shaft maximum length ([1]; 0.01 wt %, second hair cycle): 4.8 ± 0.4 mm
Hair shaft maximum length ([1]; 0.01 wt %, third hair cycle (reproducibility)): 4.7 ± 0.3 mm
Hair shaft growth rate ([1]; 0.1 wt % in 50% ethanol, second hair cycle): 0.30 ± 0.03 mm/day
Hair shaft growth rate ([1]; 0.1 wt % in 50% ethanol, third hair cycle (reproducibility)): 0.40 ± 0.06 mm/day
Hair growth activity ([1]; 0.1 wt %, growth rate not significantly different, maximum length increased significantly in third hair cycle): hair growth activity was shown
Hair shaft maximum length ([1]; 0.1 wt %, second hair cycle): 4.7 ± 0.4 mm
Hair shaft maximum length relative to reference data ([1]; 0.1 wt %, second hair cycle vs first hair cycle (vehicle)): 101%
Hair shaft maximum length ([1]; 0.1 wt %, third hair cycle (reproducibility)): 4.8 ± 0.4 mm
Hair shaft maximum length relative to reference data ([1]; 0.1 wt %, third hair cycle vs first hair cycle (vehicle)): 105%
Hair shaft growth rate ([1]; 1 wt % in 50% ethanol, second hair cycle): 0.47 ± 0.01 mm/day
Hair shaft growth rate ([1]; 1 wt % in 50% ethanol, third hair cycle (reproducibility)): 0.48 ± 0.04 mm/day
Hair shaft maximum length ([1]; 1 wt %, second hair cycle): 5.7 ± 0.4 mm
Hair shaft growth rate relative to reference data [1, 2]: 121%
Hair shaft maximum length relative to reference data [1, 2]: 110%
Hair shaft maximum length ([1]; 1 wt %, third hair cycle (reproducibility)): 6.0 ± 0.4 mm
Hair shaft growth rate relative to reference data [1, 3]: 123%
Hair shaft maximum length relative to reference data [1, 3]: 116%
Hair shaft growth rate ([1]; 5 wt % in 50% ethanol, second hair cycle): 0.46 ± 0.04 mm/day
Hair shaft growth rate ([1]; 5 wt % in 50% ethanol, third hair cycle (reproducibility)): 0.49 ± 0.07 mm/day
Hair shaft maximum length ([1]; 5 wt %, second hair cycle): 5.1 ± 0.3 mm
Hair shaft growth rate relative to reference data [1, 4]: 128%
Hair shaft maximum length relative to reference data [1, 4]: 116%
Hair shaft maximum length ([1]; 5 wt %, third hair cycle (reproducibility)): 5.1 ± 0.4 mm
Hair shaft growth rate relative to reference data [1, 5]: 136%
Hair shaft maximum length relative to reference data [1, 5]: 116%
Hair shaft growth rate ([1]; 10 wt % in 50% ethanol, second hair cycle): 0.46 ± 0.06 mm/day
Hair shaft growth rate ([1]; 10 wt % in 50% ethanol, third hair cycle (reproducibility)): 0.63 ± 0.05 mm/day
Hair shaft growth rate and hair shaft maximum length relative to the reference data ([1]; 10 wt %, 5 wt %, or 1 wt % as the agent): increased significantly
Hair shaft maximum length ([1]; 10 wt %, second hair cycle): 5.6 ± 0.5 mm
Hair shaft growth rate relative to reference data [1, 6]: 154%
Hair shaft maximum length relative to reference data [1, 6]: 142%
Hair shaft maximum length ([1]; 10 wt %, third hair cycle (reproducibility)): 5.9 ± 0.5 mm
Hair shaft growth rate relative to reference data [1, 7]: 210%
Hair shaft maximum length relative to reference data [1, 7]: 149%
Hair shaft diameter vs negative control group (C57BL/6N mice): significantly larger

Reference: patent US11534377B2, “Hair growth agent” (KOBAYASHI PHARMACEUTICAL CO., LTD., priority 2016, dated 2022)
